Activity calls are given as the source filed them. The calls are words filed in the database; no cut-off is given here.
Assays:
Escherichia coli [1] = experiment: Minimum inhibitory concentration required for antibacterial activity against Escherichia coli ATCC 25922; type: functional
Staphylococcus aureus [2] = experiment: Minimum inhibitory concentration required for antibacterial activity against Staphylococcus aureus ATCC 29213; type: functional
Escherichia coli [3] = experiment: Compound was evaluated for antibacterial activity against Escherichia coli ATCC 25922; Inactive; type: functional, organism-based
Staphylococcus aureus [4] = experiment: Compound was evaluated for antibacterial activity against Staphylococcus aureus ATCC 29213; Inactive; type: functional, organism-based

SMILES	MIC (Escherichia coli [1])	MIC (Staphylococcus aureus [2])	MIC (Escherichia coli [3])	MIC (Staphylococcus aureus [4])
O=C(COc1ccccc1)N[C@H]1CON(S(=O)(=O)[O-])C1=O.[K+]	> 500 µg/mL	> 500 µg/mL	–	–
CCOC(C(=O)[O-])N1OC[C@H](NC(=O)c2ccccc2)C1=O.[K+] (stereo partly specified)	> 1000 µg/mL	> 1000 µg/mL	–	–
CO/N=C(\C(=O)N[C@H]1CON(C(Oc2ccccc2)C(=O)O)C1=O)c1csc(N)n1 (stereo in doubt; 4c)	–	–	inactive	inactive
CO/N=C(\C(=O)N[C@H]1CON(C(Oc2ccccc2)C(=O)O)C1=O)c1csc(N)n1 (stereo in doubt; 4b)	–	–	inactive	inactive

More lines, now with the values ahead:

MIC (Escherichia coli [1])	MIC (Staphylococcus aureus [2])	MIC (Escherichia coli [3])	MIC (Staphylococcus aureus [4])	SMILES
–	–	inactive	inactive	CO/N=C(\C(=O)N[C@H]1CON(C(Oc2ccc(F)cc2)C(=O)O)C1=O)c1csc(N)n1 (stereo in doubt; 4e)
–	–	inactive	inactive	CO/N=C(\C(=O)N[C@H]1CON(C(Oc2ccc(Cl)cc2)C(=O)O)C1=O)c1csc(N)n1 (stereo in doubt; 4f)
–	–	inactive	inactive	CO/N=C(\C(=O)N[C@H]1CON(C(Oc2ccc(Cl)cc2)C(=O)O)C1=O)c1csc(N)n1 (stereo in doubt; 4g)
–	–	inactive	inactive	CO/N=C(\C(=O)N[C@H]1CON(C(Oc2ccc(F)cc2)C(=O)O)C1=O)c1csc(N)n1 (stereo in doubt; 4d)
